Laboratory results from patent US20160333063A1, “SOLUBLE HIGH MOLECULAR WEIGHT (HMW) TAU SPECIES AND APPLICATIONS THEREOF” (THE GENERAL HOSPITAL CORPORATION, priority 2013, published 2016).
Where a SMILES comes first, the peptide text is derived from it. The star is where a group is joined. Cbz = O=C(OCc1ccccc1)*; CH2F = FC*

Tests used:
Assay type in all cases: cell-based, mouse
caspase 3 = assay: Western blot of cleaved caspase 3 in treated primary cortical neurons
Procedure: (§1) Treatment of neuronal cultures. Wild-type (from CD1 mice), Tau−/−, Tau+/−, and Tau+/+ cortical neurons were cultured in standard NB/B27 serum-free medium, and, at 14 DIV, the medium was replaced with diluted 1:3 CM from TgCM, corresponding to 4 nM of Aβ, or WtCM (0.16 nM of murine Aβ40) and further incubated for 24 hrs. To induce apoptosis, cultures were treated with staurosporine (Enzo Life Sciences) at a final concentration of 1 μM and were harvested 4 hours after treatment. In zVAD-FMK (Sigma Aldrich) experiments, 20 μM of the inhibitor was applied to cultures 20 minutes prior to exposure to WtCM, TgCM, or STS. To inhibit calcineurin, 1 μM FK506 (Enzo Life Sciences) was applied 20 minutes prior to exposure to WtCM, TgCM or STS. Media was then aspirated and RIPA buffer with phosphatase and protease inhibitors was added to each well. Cells were scraped to prepare lysates for Western blots.
Western Blot. Protein lysates were boiled in sample buffer consisting of LDS Sample Buffer and reducing Agent, resolved on 4%-12% Bis-Tris polyacrylamide precast gels in a MES-SDS running buffer containing antioxidant. For most analyses, 20 μg/lane were loaded. Gels were transferred onto nitrocellulose membranes (Whatman) in transfer buffer containing 20% methanol. Blots were blocked in Odyssey blocking buffer (Li-Cor biosciences), followed by incubation with primary antibodies: mouse β-actin (Sigma; 1:10,000); rabbit cleaved caspase 3 (Cell Signaling; 1:1,000); rabbit caspase 3 (Cell Signaling; 1:1,000); mouse TauC3 (courtesy of Dr Lester Binder, 1:300); rabbit polyclonal Total Tau (Dako; 1:10,000), rabbit PSD95 (1:1,000; Cell Signaling), rabbit cleaved caspase 9 (1:1,000; Cell Signaling), mouse caspase 9 (1:1,000; Cell Signaling), rabbit pBAD (1:1,000; Cell Signaling), rabbit BAD (1:1,000; Cell Signaling), VDAC (1:1,000; Cell Signaling), mouse cytochrome c (1:1,000; BD Pharmingen), mouse BAX (1:1,000; Santa Cruz), rabbit cleaved PARP (1:1,000; Cell Signaling), rabbit PARP (1:1,000; Cell Signaling). […]

[1] = system: poly (ADP-ribose) polymerase (PARP); assay: Western blot of cleaved PARP; details: TgCM 24 hrs; STS 6 hours
Procedure: as §1, with “To induce apoptosis, cultures were treated with staurosporine (Enzo Life Sciences) at a final concentration of 1 μM and were harvested 4 hours after treatment.” left out
(§2) Western Blot. Protein lysates were boiled in sample buffer consisting of LDS Sample Buffer and reducing Agent, resolved on 4%-12% Bis-Tris polyacrylamide precast gels in a MES-SDS running buffer containing antioxidant. For most analyses, 20 μg/lane were loaded. Gels were transferred onto nitrocellulose membranes (Whatman) in transfer buffer containing 20% methanol. […]

[2] = system: primary neuronal cultures; assay: ToxiLight BioAssay for cell death
Procedure: ToxiLight BioAssay. Toxicity assays were conducted in medium collected from wild-type, Tau+/− and Tau−/− neurons plated in 96 well plates at 15 DIV using the ToxiLight BioAssay kit (Lonza, Rockland, Me.). Preparation of cell extracts and the cytotoxicity assay were performed according to manufacturer protocols. After centrifugation, 50 μl samples per well were transferred on an opaque white microtitre plate. To each well, 100 μl of the adenylate kinase detection reagent was added and the plate was incubated for 5 min at room temperature. After 5 min, luminescence was measured in the Wallac plate reader. Results are expressed as arbitrary relative light units (AU). To achieve 100% cell lysis (positive control) neurons were treated with 10% triton-X-100. […] Neurons for Toxilight assays were plated in 96 well plates using 3 wells per condition in duplicate across four separate culture experiments.

GFP transfected neurons = assay: Spine density of GFP transfected neurons
Procedure: Analysis of spine density and spine morphology. Cultured neurons plated in 35 mm glass-bottomed dishes (MatTek) were transfected with green fluorescent protein (GFP) (Clontech) at 7 DIV and imaged at 15 DIV. High-resolution digital images were taken using a Zeiss LSM510 confocal microscope with a 25× water-immersion objective lens (digital zoom=3-5), and excitation laser at 488 nm. Images were analyzed with NeuronStudio software (CNIC, Mount Sinai School of Medicine). Spine density was defined as the number of spines per micrometer of dendrite length according previously published protocols (Wu et al., 2010) with modifications. Dendritic spine densities were calculated from 30 to 40 neurons per condition across four separate culture experiments. For each condition, measurements of spine densities were averaged per neuron; the means from multiple neurons were then averaged to obtain the mean±s.e.m. for the population of neurons.

BAD = assay: Western blot of phosphorylated BAD in treated primary cortical neurons; details: TgCM treated cultures, inhibitor or Aβ immunodepletion
Procedure: as §1, §2

caspase 9 = assay: Western blot of cleaved caspase 9 in treated primary cortical neurons; details: TgCM treated cultures, inhibitor or Aβ immunodepletion
Procedure: as §1, §2

PSD95 = assay: Western blot of PSD95; details: co-treated with inhibitor
Procedure: as §1, §2

[3] = system: tau cleaved at Asp421 (TauC3); assay: Western blot of tau cleaved at Asp421 in treated primary cortical neurons
Procedure: as §1, §2

cytochrome c = assay: Western blot of cytochrome c in cytosolic fraction and mitochondrial pellet; details: TgCM treated cultures plus inhibitor
Procedure: as §1
Mitochondria Isolations. Mitochondria were isolated from neurons plated in 10 cm dishes treated with WtCM and TgCM and purified by centrifugation as previously described (Ofengeim et al., 2012). […] The protein concentration was determined by BCA assay (Thermo Scientific) in all fractions and this concentration used for loading gels for western blot analysis. […]

[4] = STS 1 μM plus caspase inhibition
[5] = TgCM (4 nM Aβ) 24 hrs, inhibitor applied 20 minutes prior

Compound: C=CC[C@@H]1/C=C(\C)C[C@H](C)C[C@H](OC)[C@H]2O[C@@](O)(C(=O)C(=O)N3CCCC[C@H]3C(=O)O[C@H](/C(C)=C/[C@@H]3CC[C@@H](O)[C@H](OC)C3)[C@H](C)[C@@H](O)CC1=O)[C@H](C)C[C@@H]2OC [FK506]
- caspase 3 activation, tau cleavage, caspase 9 activation and BAD dephosphorylation in WtCM treated cultures (caspase 3; WtCM plus inhibitor): no effect

Compound: CN[C@@H]1C[C@H]2O[C@@](C)([C@@H]1OC)n1c3ccccc3c3c4c(c5c6ccccc6n2c5c31)C(=O)NC4 [STS, staurosporine]
- cleaved PARP [1]: induced PARP cleavage
- cell death (release of adenylate kinase) ([2]; compared to control): cell death was induced

Compound: COC(=O)C[C@H](NC(=O)[C@H](C)NC(=O)[C@@H](NC(=O)OCc1ccccc1)C(C)C)C(=O)CF [zVAD-FMK] (Cbz-Val-Ala-Asp(OMe)-CH2F)
- spine loss triggered by TgCM (GFP transfected neurons; TgCM treated neurons plus inhibitor): fully blocked the spine loss
- spine density in WtCM exposed neurons (GFP transfected neurons; WtCM plus inhibitor): significant increase in spine density
- TgCM-induced dephosphorylation of BAD (BAD): did not prevent dephosphorylation of BAD
- Aβ-induced caspase 9 activation (caspase 9): blocked
- caspase 3 activation in STS treated cells (caspase 3; [4]): reduced activation of caspase 3
- caspase 3 activation in TgCM exposed neurons (caspase 3; [5]): no increase
- PSD95 levels in neurons exposed to TgCM (PSD95): preserved
- tau cleavage in STS treated cells [3, 4]: reduced tau cleavage
- TauC3 levels / tau cleavage in TgCM exposed neurons [3, 5]: no increase
- STS-induced cell death ([2]; STS plus inhibitor): blocked
- levels of cytochrome c in the cytosol or mitochondrial pellet (cytochrome c): did not alter levels of cytochrome c
